In one data set the test system is E. faecalis ATCC 33186. Briefly: MIC determination by microbroth dilution. The settings on record: Enterococcus faecalis, ATCC33186. The format is cell-based, Enterococcus faecalis.
Another data set deals with M. tuberculosis H37Rv. Briefly: MIC determination by microbroth dilution, anti-tuberculosis activity. The format is cell-based, Mycobacterium tuberculosis.
Data set [1] in a line: in vitro. The note with it: African green monkey.
Data set [2] has as its system S. aureus 8325 or strain ATCC 29213. Kind of data set: MIC determination by microbroth dilution. The format is cell-based, Staphylococcus aureus. The settings on record: Staphylococcus aureus, ATCC29213; S. aureus 8325 or strain ATCC 29213 (for 1471-1544). A general note: Broth dilution looks for growth in wells or tubes with falling amounts of substance.
A further data set has as its system B. anthracis Sterne 34F2. Kind of data set: microbe, parasite or virus in culture. The settings on record: Bacillus anthracis, STERNE34F2, read-out: MIC B. anthracis 34F2. The format is cell-based, Bacillus anthracis.
Data set [3] concerns Strep. pneumoniae DAW27 or strain R6. Briefly: MIC determination by microbroth dilution. It is filed as cell-based, Streptococcus pneumoniae. The settings on record: Streptococcus pneumoniae; Strep. pneumoniae DAW27 or strain R6 (for 1443-1544); read-out: MIC S. pneumoniae.
In data set [4] the test system is Proteus vulgaris ATCC 33420. Kind of data set: MIC determination by microbroth dilution. It is filed as cell-based. The note with it: ATCC33420.
Data set [5] in a line: in vitro. The format is in vitro ADME. The note with it: rat, plasma, pH 7.4. On the procedure: Protein Binding: Protein binding of the compounds was determined using equilibrium dialysis. Biologically relevant concentrations of test compound were prepared (low and high) in rat plasma. 200 μL of the plasma sample was placed in the central chamber and 350 μL of blank isotonic phosphate buffer, pH 7.4 was added to the peripheral chamber of a dialysis device (MW cutoff 6000-8000 D, RED® device, Pierce Biotechnology Inc, Rockford, Ill., United States of America). The chambers were covered with a seal and incubated at 37° C. for four hours on a shaker set at 100 rpm. At the end of incubation, the volumes of plasma and recipient buffer were measured to identify and account for volume shift, if any. Aliquots of plasma and buffer were used to determine the drug concentration using an LC-MS/MS assay. The free fraction of the drug was calculated as ratio of the concentrations in the buffer and in plasma.
(§1) Following intravenous administration of 10 mg/kg in rats, 1329 follows a bi-exponential concentration/time profile with distinct distribution and elimination phases. Plasma protein binding of the compound is approximately 30%. 1329 is widely distributed with a steady state volume of distribution of 4.3 L/kg. It has a mean residence time in the body of approximately 5.3 hours.

Another data set deals with E. coli ribosomes. It is filed as biochemical.
For a further data set, the system named is Vero epithelial cells. The settings on record: African green monkey.
The test system of data set [6] is Klebsiella pneumoniae ATCC 33495. Kind of data set: MIC determination by microbroth dilution. The format is cell-based. The note with it: ATCC33495.
The test system of another data set is E. coli K12. Briefly: MIC determination by microbroth dilution. The settings on record: Escherichia coli, K12. The format is cell-based, Escherichia coli.
Data set [7] deals with Proteus mirabilis ATCC 25933. Kind of data set: MIC determination by microbroth dilution. The format is cell-based. The note with it: ATCC25933.
The format of data set [8] is in vitro ADME. The settings on record: rat, microsomes, 1.5 h, 2 µM, pH 7.4. The procedure:
In Vitro Microsomal Metabolic Stability: In vitro microsomal metabolic stability of the compounds was assessed using pooled rat liver microsomal preparations (Cellzdirect, Austin, Tex., United States of America). Reactions were started by adding 25 μL of microsomal protein solution (10 mg/mL) to 25 μL of test compound (20 μM) and 200 μL of NADPH regenerating solution (1.3 mM NADP+, 3.3 mM glucose-6-phosphate, 3.3 mM MgCl2 and 1 unit/mL glucose-6-phosphate dehydrogenase in pH 7.4 phosphate buffer solution). The reaction mixture was incubated at 37° C. and samples were taken at 0, 5, 10, 15, 30, 45, 60 and 90 minutes respectively. A reaction mixture containing above mentioned composition but instead using deactivated microsomes was used for control. All the samples were analyzed using LC-MS/MS assay. Disappearance of the parent compound was monitored during the incubation period. The percentage of parent compound remaining intact was estimated by comparing analyte concentrations before and after incubation.
as §1

The test system of data set [9] is Strep. pyogenes ATCC 700294. Kind of data set: MIC determination by microbroth dilution. It is filed as cell-based, Streptococcus pyogenes. The note with it: Streptococcus pyogenes, ATCC700294, read-out: MIC S. pyogenes.

Where a name gives a salt, the structure may show the parent alone.

The values that follow come from US9284325B2, “Spectinamides as anti-tuberculosis agents” (UNIVERSITY OF TENNESSEE RESEARCH FOUNDATION, priority 2009, dated 2016).

As a reminder, the fraction unbound is the share of the substance not bound to proteins or other matrix. In the case of `CN[C@@H]1[C@H](O)[C@H](NC)C2O[C@]3(O)C(OC2[C@H]1O)O[C@H](C)C[C@H]3NC(=O)Cc1ccccn1` (stereo partly drawn) [Compound 1329, 3′-Dihydro-3′-deoxy-4(R)-(pyridin-2yl)acetylamino spectinomycin Dihydrochloride], the MIC against E. faecalis ATCC 33186 was 100 µg/mL; with M. tuberculosis H37Rv (Mycobacterium tuberculosis, H37RV, 168 h, read-out: MIC), 0.8 µg/mL; in data set [2] it was 50 µg/mL; with B. anthracis Sterne 34F2 it was 50 µg/mL; in [3], 6.25 µg/mL; in [4], greater than 200 µg/mL. Besides, the MIC in [6] is greater than 200 µg/mL; with E. coli K12, 200 µg/mL; in [7], greater than 200 µg/mL; in [9], 50 µg/mL. In addition, the “Activity (MIC) of 1329 compared to streptomycin” value with M. tuberculosis H37Rv is 0.8-1.6. The IC50 at 72 h in the data set “in vitro [1]” came out at 2180 µg/mL. Also, the fraction unbound at 4 h in the data set “in vitro [5]” is roughly 0.7. In addition, in the data set on E. coli ribosomes (E. coli S30 system, FIG. 4, read-out: concentration causing 50% reduction in the synthesis of luciferase), the IC50 was determined as 660 nM. The “IC50, 50% inhibition of luciferase biosynthesis in S30 assay” value in the data set with E. coli ribosomes (E. coli S30 transcription/translation assay) was found to be 0.29 µg/mL. Also, in the data set on Vero epithelial cells, the “therapeutic index (IC50 divided by the MIC)” value was 5456. For the same compound, the “parent drug remaining intact” value in data set [8] is 95%.
